Here are results for 6 molecules from PMC5681435, “Differential Regulation of G1 CDK Complexes by the Hsp90-Cdc37 Chaperone System” (Cell Reports, 2017).

In one test the target is T1, CDK2 (Homo sapiens, UniProt P24941).
T1 construct: made in house; host or cells: E. coli BL21STAR(DE3)
Briefly: HTRF direct binding to GSTCDK2. As to conditions: GSTCDK2 25 nM. The method, then: (§1) exchange chromatography (HiTrap Q, GE Healthcare). Protein concentrations were determined by NanoDrop2000 UV-Vis Spectrophotometer (Thermo Scientific) or using a Shimadzu UV1800 spectrophotometer. A representative SDS-polyacrylamide gel stained with silver is shown in Figure S4 to illustrate the purity of the GSTCDK4 and GSTCDK6 […]
(§2) Avi-tagged proteins (Cdc37, p16INK4a, p16INK4a mutants, Kcyclin and Vcyclin) were biotinylated to provide an affinity tag for the streptavidin-tagged XL665 dye. A substantial amount of biotinylated protein was purified from the recombinant E. coli cells as a result of endogenous BirA activity. Proteins were further modified by incubating 40 µM of the Avi-tagged protein with 10 µg BirA in biotinylation buffer (50 mM Bicine pH 8.3, 10 mM ATP, 10 mM MgOAc, 50 µM d-biotin) at 30°C for 60 minutes. […] The extent of protein biotinylation was monitored by pull downs using High Capacity NeutrAvidin® Agarose Resin (Thermo […]
(§3) To assemble the various complexes, 15 µg of Cdc37 was mixed with a molar equivalent of CDK6, and incubated for 1hour at 4 °C. […] The reactions were stopped by addition of 2 x LDS buffer and analysed by SDS-PAGE and subsequent western blotting using an anti-phosphorylated S780 antibody […]
(§4) Homogenous time-resolved fluorescence (HTRF) […]
(TR-FRET usually uses a lanthanide donor and a delayed reading to cut background.)

The target of test [1] is B-Raf^V600E kinase domain. More on the design: method as in Polier et al., 2013. As to conditions: isothermal titration calorimetry; ref Polier et al., 2013; read-out: Affinity of Cdc37-B-Raf^V600E kinase domain interaction; cited from earlier work. (In general: Isothermal titration calorimetry measures the heat released or taken up as one component is titrated into another.)

For another test, the target named is T2, CDK4 (Homo sapiens, UniProt P11802).
T2 construct: Full length human CDK4 and CDK6 with an N-terminal; made in house; host or cells: Sf9 insect cells (baculovirus, MultiBac)
T2 sequence (P11802 whole entry): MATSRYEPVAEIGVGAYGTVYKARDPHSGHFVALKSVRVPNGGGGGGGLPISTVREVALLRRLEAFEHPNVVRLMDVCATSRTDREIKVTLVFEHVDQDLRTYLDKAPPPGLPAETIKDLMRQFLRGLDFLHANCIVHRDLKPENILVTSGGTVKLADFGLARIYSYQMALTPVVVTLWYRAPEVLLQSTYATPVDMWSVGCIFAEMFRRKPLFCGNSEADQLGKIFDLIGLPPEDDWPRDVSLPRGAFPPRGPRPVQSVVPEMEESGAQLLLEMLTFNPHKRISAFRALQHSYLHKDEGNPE
Briefly: HTRF direct binding to GSTCDK4. As to conditions: GSTCDK4 10 nM, read-out: Dissociation constant for binding to CDK4. The method, then: as §1, §2, §3, §4

A further test concerns the target T3, CDK6 (Homo sapiens, UniProt Q00534).
T3 construct: Full length human CDK4 and CDK6 with an N-terminal; made in house; host or cells: Sf9 insect cells (baculovirus, MultiBac)
Nature of the test: HTRF direct binding to GSTCDK6. The settings on record: GSTCDK6 10 nM, read-out: Dissociation constant for binding to CDK6. The method, then:
as §1, §2, §3, §4

A further test concerns CDK6-cyclin D. Details: method as in Sherr et al., 2016. The settings on record: ref Sherr et al., 2016; read-out: IC50 against CDK6-cyclin D; cited from earlier work.
The test system of the next test is CDK4-cyclin D. Details: method as in Sherr et al., 2016. As to conditions: ref Sherr et al., 2016; read-out: IC50 against CDK4-cyclin D; cited from earlier work.
In another test the target is T4, CDK4-Cdc37 complex (Homo sapiens, UniProt P11802).
T4 construct: Full length human CDK4 and CDK6 with an N-terminal; made in house; host or cells: GSTCDK4: Sf9 insect cells; Cdc37: E. coli
T4 sequence (P11802 whole entry, one chain of several): as the sequence (P11802 whole entry) above
It counts as binding. As to conditions: HTRF competition, 8 nM GSTCDK4, 150 nM C-Avi Cdc37.

For test [2], the target named is T5, CDK4-cyclin D1/D3 complexes (Homo sapiens, UniProt P11802).
T5 construct: Full length human CDK4 and CDK6 with an N-terminal; made in house; host or cells: Sf9 insect cells (co-expression)
T5 sequence (P11802 whole entry): as above
T5 sequence (P30281 whole entry partner): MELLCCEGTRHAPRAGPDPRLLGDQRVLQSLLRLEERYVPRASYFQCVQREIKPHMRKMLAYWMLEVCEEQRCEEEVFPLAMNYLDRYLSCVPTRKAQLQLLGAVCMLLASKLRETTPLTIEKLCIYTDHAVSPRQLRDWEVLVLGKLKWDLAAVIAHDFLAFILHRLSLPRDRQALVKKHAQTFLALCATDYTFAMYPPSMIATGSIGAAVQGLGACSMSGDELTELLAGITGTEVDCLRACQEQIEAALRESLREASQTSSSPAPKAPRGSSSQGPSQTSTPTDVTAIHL
Briefly: HTRF association of Avi-tagged Cdc37 with GSTCDK4-cyclin D complexes with or without p21M/p27M. The class given is binding. The settings on record: ternary complex, Figure 4E. The method, then:
To find out whether the CIP/KIP CKIs can cooperate with cyclin D isoforms to generate a stable ternary CDK4 complex that is resistant to displacement by Cdc37, we next purified GSTCDK4-cyclin D1 and D3 and GSTCDK6-cyclin D1 and D3 complexes assembled in insect cells, incubated them with excess p21M or p27M, and isolated the complexes by size-exclusion chromatography. We then used the HTRF assay to measure the association of Avi-tagged Cdc37 with GSTCDK4 and GSTCDK6, which were presented unpartnered, in a binary complex with cyclin D1 or cyclin D3, or in a ternary complex with cyclin D1 or D3 and p21M, or p27M. As shown previously, Cdc37 binds to monomeric CDK4 (Figures 4C and 4E, blue lines) and effectively displaces cyclin D1 or cyclin D3 (Figures 4C and 4E, red lines). […]
as §1
Avi-tagged proteins (Cdc37, p16INK4a, p16INK4a mutants, Kcyclin and Vcyclin) were biotinylated to provide an affinity tag for the streptavidin-tagged XL665 dye. […] The extent of protein biotinylation was monitored by pull downs using High Capacity NeutrAvidin® Agarose Resin (Thermo […]

“Also recorded” adds a separate entry of the source.

T3 sequence (Q00534 whole entry): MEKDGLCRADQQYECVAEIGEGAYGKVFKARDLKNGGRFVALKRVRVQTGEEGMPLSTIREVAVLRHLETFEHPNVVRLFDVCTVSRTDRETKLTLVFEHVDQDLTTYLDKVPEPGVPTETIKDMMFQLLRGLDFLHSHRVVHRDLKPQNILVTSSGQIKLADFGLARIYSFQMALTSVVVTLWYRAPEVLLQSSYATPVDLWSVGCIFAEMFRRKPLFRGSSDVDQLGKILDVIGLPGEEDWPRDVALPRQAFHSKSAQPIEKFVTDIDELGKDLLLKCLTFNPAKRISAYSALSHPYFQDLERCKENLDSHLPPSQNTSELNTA

As for “Cdc37: human Hsp90 adaptor co-chaperone Cdc37, recombinant, Avi- or FLAG-tagged”, the “Binding to CDK2” value with CDK2 is “not bind to CDK2; also recorded: no interaction could be detected”. Besides, the Kd in test [1] was ~0.2 µM; in the test with CDK4, 0.092 ± 0.029 µM; in the test with CDK6, 0.46 ± 0.23 µM.

Consider `CN(C)C(=O)c1cc2cnc(Nc3ccc(N4CCNCC4)cn3)nc2n1C1CCCC1` [LEE011, ribociclib], for which the IC50 – broadly, the midpoint of a concentration-inhibition curve – with CDK6-cyclin D is 0.039 µM; in the test on CDK4-cyclin D, 0.01 µM.

As to p21M: p21CIP1 fragment residues 1–87, the “Displacement of Cdc37 from CDK4-Cdc37 complex (in words)” value (shortened to “Displacement of Cdc37”) with CDK4-Cdc37 complex is “can displace”. The “Effect of addition to CDK4-cyclin D3 on Cdc37 binding” value in test [2] was “prevent Cdc37 from binding”.

For `CC(=O)c1c(C)c2cnc(Nc3ccc(N4CCNCC4)cn3)nc2n(C2CCCC2)c1=O` [PD0332991, palbociclib], the IC50 was 0.015 µM in the test on CDK6-cyclin D and 0.011 µM in the test on CDK4-cyclin D.

As for p21S: p21CIP1 fragment residues 9–87, the “Displacement of Cdc37” value with CDK4-Cdc37 complex is recorded as “can displace”.

`CCN1CCN(Cc2ccc(Nc3ncc(F)c(-c4cc(F)c5nc(C)n(C(C)C)c5c4)n3)nc2)CC1` [LY2835219, abemaciclib]: the “Displacement of Cdc37” value on CDK4-Cdc37 complex is “unable to derive reproducible inhibition curves”. Further, the IC50 was 0.005 µM with CDK6-cyclin D and 0.002 µM in the test on CDK4-cyclin D.
